Results reported in patent US9260534B2, “Site-directed PEG-modified exendin-4 analogs and uses thereof” (priority 2010, dated 2016).

System: GLP-1 receptor
Assay: Evaluation of agonistic activity on GLP-1 receptor (CRE-luciferase reporter in HEK293 cells)
Format: cell-based
Conditions: HEK293 cells stably expressing CRE-luciferase reporter system; cellular level
Description: GLP-1 receptor is a Gs-coupled GPCR. CRE-luciferase reporter system was stably expressed in human embryonic kidney epithelial cell line HEK293 used for evaluation. Therefore, once the receptor was activated, the enhancement of intracellular concentration of the second messenger cAMP through Gs signal pathway would initiate the expression of the luciferase gene in the reporter system. The ability of the test compounds to stimulate and activate GLP-1 receptor was reflected by the detected expression level of the luciferase reporter gene.

Substance: [Cys^21(mPEG5000-MAL)]Exendin-4 [Compound 1]
- EC50: 0.0225 µM
